Assay results from patent US20260085101A1, “NOVEL PLATELET DERIVED GROWTH FACTOR PEPTIDE MIMETIC” (THE UNIVERSITY OF SYDNEY, priority 2022, published 2026).

Tests used:
Assay type in all cases: cell-based
[1] = tested on: C3H10T½ mouse embryonic fibroblasts; assay: EdU proliferation assay (flow cytometry); conditions: C3H10T½ cells; 10 μM AG1296 with 20 ng/ml PDGF−BB
Procedure: FIG. 8. Proliferation of C3H10T½ Cells Following Treatment with PDGF and Novel PDGF Mimetic Peptides. Cultured C3H10T½ mouse embryonic fibroblast cells were treated with 20 ng/ml recombinant PDGF−AB or PDGF−BB protein ligands, and 2 μg/ml of novel PDGF mimetics JC5 or JC5a for 24 hr, in the presence of 1% fetal bovine serum (FBS). Percent proliferating cell was determined after a 2 hr pulse with nucleotide analogue EdU at the end of the incubation period. […] Co-treatment of protein/peptides with 10 μM of PDGF receptor antagonist, AG1296, confirmed that PDGF-BB-stimulated proliferation occurred via the PDGF ligand/receptor pathway. […] Error bars represent ±SD, n=3. Statistical analysis was using One-Way Anova: * p<0.05; ** p<0.01; *** p<0.001; **** p<0.0001. The mitotic effects of PDGF mimetic peptides JC5 and JC5a were tested using cultured C3H10T½ mouse embryonic fibroblasts. Proliferation was assayed after a pulse of nucleotide analogue 5-ethynyl-2′-deoxyuridine (EdU) and fluorescent detection using flow cytometry. Cells were treated with 20 ng/ml PDGF−BB or PDGF−AB, and 2 μg/ml of peptides JC5 or JC5a, in the presence of 1% fetal bovine serum (FBS) and DMEM for 24 hr. 10% FBS was used as a positive control, and co-treatments with specific PDGF receptor antagonist, AG1296, was used to ascertain whether proliferation occurred via the PDGF ligand/receptor pathway. Assays were performed in biological triplicate.

C2C12 mouse myoblasts [2] = assay: Collagen gel contraction assay with C2C12 cells
Description: FIG. 3. Collagen Contraction of C2C12 Mouse Fibroblasts Treated with PDGF and peptides JC5 and JC5a. […] Error bars represent ±SD, n=8/4. The function of Compounds Ia (also referred to herein as JC5) and Ib (also referred to herein as JC5a) has been tested in vitro on the continuous cell line, C2C12 mouse myoblasts. In these in vitro assays recombinant PDGF−AB and −BB have been used as positive controls along with a serum starved no treatment control and the PDGF receptor inhibitor AG1296 co-treated with PDGF−AB as a negative control. The in vitro assays were designed to assess the major known functions of PDGF whilst also considering functions that are relevant to its in vivo applications. These functions were chemotaxis, collagen contraction, vascular tube formation and activation of the PDGF receptors via phosphorylation of Akt and Erk. Collagen contraction is an important function during wound healing of many tissues including the heart. This can be simulated in vitro using a collagen gel contraction assay. This was assessed using C2C12 cells treated with the positive controls 10 ng/ml recombinant PDGF-BB and PDGF−AB, negative control 10 μM AG1296 co-treated with 10 ng/ml recombinant PDGF−AB, a serum starved no treatment control and 1 μg/ml of the peptides JC5 and JC5a. C2C12 mouse myoblasts were seeded in a 3D collagen gel crosslinked with NaOH and incubated at 37° C. for 24 hours following treatment with the four controls and peptides JC5 and JC5a.

C2C12 mouse myoblasts [3] = assay: Scratch migration (chemotaxis) assay on C2C12 cells
Procedure: FIG. 2. Migration of C2C12 Mouse […] Cells Treated with PDGF and peptides JC5 and JC5a. C2C12 mouse fibroblast cells migrate across the scratch over 24 hours. Cells were treated with 10 ng/ml PDGF−AB (n=6), PDGF−BB (n=6), and 1 μg/ml of novel PDGF mimetic JC5 (n=6) and JC5a (n=3). […] There was also no statistically significant difference between the PDGF mimetic peptides and PDGF−AB and −BB positive controls. Error bars represent ±SD. The function of Compounds Ia (also referred to herein as JC5) and Ib (also referred to herein as JC5a) has been tested in vitro on the continuous cell line, C2C12 mouse myoblasts. In these in vitro assays recombinant PDGF−AB and −BB have been used as positive controls along with a serum starved no treatment control and the PDGF receptor inhibitor AG1296 co-treated with PDGF−AB as a negative control. The in vitro assays were designed to assess the major known functions of PDGF whilst also considering functions that are relevant to its in vivo applications. These functions were chemotaxis, collagen contraction, vascular tube formation and activation of the PDGF receptors via phosphorylation of Akt and Erk. Chemotaxis was assessed by making a scratch through a 2D culture of C2C12 cells following treatment with the four controls and the peptides JC5 and JC5a. They were then incubated for 24 hours at 37° C. Migration of the cells across the scratch at the conclusion of the incubation was measured and compared to the relevant controls described above. PDGF is a well-established mediator of chemotaxis and is expected to increase migration of the cells across the scratch over the course of 24 hours post treatment.

PDGF receptor = target: T1, PDGF receptor (Mus musculus, UniProt P05622); assay: Western blot for phosphorylation of ERK in C2C12 cells (PDGF receptor activation); conditions: 10 ng/ml PDGF, 1 μg/ml peptide, vs no treatment and AG1296+PDGF−AB controls
T1 construct: Phosphorylation of ERK following treatment of C2C12 Cells with PDGF and JC5; endogenous in cells; host or cells: C2C12 mouse myoblasts
Procedure: FIG. 5. Phosphorylation of ERK following treatment of C2C12 Cells with PDGF and JC5. Western blots for total (ERK) and phosphorylated ERK (pERK) at 42 and 44 kDa show an increase in phosphorylation following treatment with 10 ng/ml PDGF−BB and 1 μg/ml of JC5. FIG. 6. Phosphorylation of ERK following treatment of C2C12 Cells with PDGF and JC5a. Western blots for total (ERK) and phosphorylated ERK (pERK) at 42 and 44 kDa show an increase in phosphorylation 10 minutes post treatment with 10 ng/ml PDGF−BB and 1 μg/ml of novel mimetic peptide JC5a. JC5a maintained this increased phosphorylation of ERK at 30 minutes post treatment. PDGF receptor activation takes place via autophosphorylation of tyrosine […] residues at key sites throughout the intracellular domain. Autophosphorylation engages different signaling pathways, including ERK (MAPK) which participates in proliferation, cell survival, angiogenesis, and chemotactic activity of cells. Phosphorylation of ERK indicates successful activation of the PDGF receptor.

[4] = tested on: primary human coronary artery endothelial cells (HCAECs); assay: Vascular tube forming assay on Geltrex; conditions: 24 hours
Procedure: FIG. 4. Tube formation of Human Coronary Artery Endothelial Cells Treated with PDGF and PDGF Mimetic Peptide JC5. Human coronary artery endothelial cells treated with 50 ng/ml of PDGF−AB and PDGF−BB produced longer tubes than untreated cells and cells treated with the PDGF receptor inhibitor AG1296+PDGF−AB. […] Error bars represent ±SD, n=3/group.
PDGF has a well-established role in angiogenesis in vivo. To simulate this function in vitro a vascular tube forming assay on primary human coronary artery endothelial cells (HCAECs) was carried out. Cells were seeded on top of 3D growth factor reduced Geltrex basement membrane extract and incubated for 24 hours following treatment with the PDGF−AB, PDGF-BB, no treatment control, AG1296+PDGF−AB negative control, and peptides JC5 and JC5a. Over the course of 24 hours the cells form tubes throughout the gel. PDGF is reported to facilitate tube formation of endothelial cells in in vitro 3D assays.
Cells treated with 50 ng/ml of PDGF−AB, PDGF-BB, and 5 μg/ml of JC5 produced longer more uniform tubes than untreated cells and cells treated with the negative control 10 μM PDGF receptor inhibitor AG1296 co-treated with 50 ng/ml PDGF−AB (FIG. 4). The positive controls PDGF−AB and PDGF−BB produced tubes that were 560.7 μm (±53.93) and 616.3 μm (±39.07), respectively. […] The no treatment control and AG1296+PDGF−AB negative control produced tubes that were 305 μm and 307.7 μm, respectively. […] In summary, JC5 has similar vascular tube forming ability to recombinant human PDGF−AB and PDGF-BB.

T1 sequence (P05622 32-1098): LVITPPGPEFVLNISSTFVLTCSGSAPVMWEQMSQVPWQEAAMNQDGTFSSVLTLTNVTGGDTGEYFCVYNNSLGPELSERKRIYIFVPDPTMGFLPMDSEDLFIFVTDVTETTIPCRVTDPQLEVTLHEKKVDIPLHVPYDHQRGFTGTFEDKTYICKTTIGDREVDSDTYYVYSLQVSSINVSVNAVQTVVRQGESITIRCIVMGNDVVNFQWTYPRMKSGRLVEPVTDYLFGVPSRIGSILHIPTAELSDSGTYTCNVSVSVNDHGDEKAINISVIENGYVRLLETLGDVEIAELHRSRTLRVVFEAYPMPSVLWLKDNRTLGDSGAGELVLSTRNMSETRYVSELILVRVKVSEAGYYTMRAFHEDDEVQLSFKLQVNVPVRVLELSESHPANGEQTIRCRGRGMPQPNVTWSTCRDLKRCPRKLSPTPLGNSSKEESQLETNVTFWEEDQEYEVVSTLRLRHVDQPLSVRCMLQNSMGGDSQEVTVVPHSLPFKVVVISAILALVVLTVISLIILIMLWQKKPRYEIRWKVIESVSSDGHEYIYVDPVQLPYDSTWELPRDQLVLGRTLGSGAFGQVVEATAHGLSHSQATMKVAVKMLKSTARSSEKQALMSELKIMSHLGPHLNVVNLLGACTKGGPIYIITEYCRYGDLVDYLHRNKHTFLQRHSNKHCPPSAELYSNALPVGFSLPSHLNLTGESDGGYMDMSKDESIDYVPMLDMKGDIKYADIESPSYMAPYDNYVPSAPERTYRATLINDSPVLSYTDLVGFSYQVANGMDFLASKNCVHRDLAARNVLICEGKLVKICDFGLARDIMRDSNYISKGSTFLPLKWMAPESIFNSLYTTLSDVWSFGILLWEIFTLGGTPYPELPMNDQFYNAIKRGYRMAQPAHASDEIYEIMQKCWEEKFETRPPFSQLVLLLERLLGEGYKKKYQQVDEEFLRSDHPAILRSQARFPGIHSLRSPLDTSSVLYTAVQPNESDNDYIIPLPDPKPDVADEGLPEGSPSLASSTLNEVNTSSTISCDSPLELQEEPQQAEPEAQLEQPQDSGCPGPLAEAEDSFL

COc1cc2ncc(-c3ccccc3)nc2cc1OC [AG1296, reference compound]
effect of AG1296 co-treatment on PDGF−BB-stimulated EdU uptake [1]: significantly inhibited

PDGF−BB: recombinant human PDGF-BB protein ligand, positive control
collagen gel contracted to % of its initial surface area (C2C12 mouse myoblasts [2]; 24-hour incubation, 10 ng/ml PDGF, 1 μg/ml peptides, 10 μM AG1296, mean (±SD)): 23.42%
difference in collagen gel area versus negative control AG1296 co-treated with PDGF−AB (Mean Diff.) (C2C12 mouse myoblasts [2]; 24 hours, vs negative control (55.25%)): 31.83%
difference in collagen gel area versus no treatment control (Mean Diff.) (C2C12 mouse myoblasts [2]; 24 hours, vs no treatment control (41.27%)): 17.86%
migration of cells across the scratch (C2C12 mouse myoblasts [3]; 24 hours at 37° C., 10 ng/ml PDGF, 1 μg/ml peptides, mean (±SD)): 75.02%
increase in migration compared to the negative control (Mean Diff) (C2C12 mouse myoblasts [3]; 24 hours, vs AG1296+PDGF−AB negative control): 58.45%
increase in migration compared to the no treatment control (Mean Diff.) (C2C12 mouse myoblasts [3]; 24 hours, vs no treatment control): 54.70%
phosphorylation of ERK (pERK) (PDGF receptor): phosphorylation of ERK (pERK) can be seen
tube length ([4]; 50 ng/ml PDGF, 5 μg/ml JC5, 10 μM AG1296, mean (±SD)): 616.3 μm
increased tube length compared to the negative control (Mean Diff.) ([4]; vs AG1296+PDGF−AB (307.7 μm)): 308.7 μm
increased tube length compared to the no treatment control (Mean Diff.) ([4]; vs no treatment control (305 μm)): 311.3 μm
